Assays:
[1] = target: human A2a adenosine receptor (Homo sapiens (Human), UniProt P29274); test: A2a receptor affinity radioligand binding assay ([3H] SCH58261, membranes from HEK293 or CHO cells); conditions: unstarred values: radioligand binding
Procedure, shortened: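 Displacement of tritiated SCH58261 (working dilution 4 nM) from recombinant human A2a receptor membranes (HEK293 or CHO), 60 min at room temperature in Tris pH 7.4/MgCl2 buffer after 15–30 min compound preincubation. Scintillation counting after filtration; normalized percent effect fitted 4-parameter logistic for IC50.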

[2] = target: human A2b adenosine receptor (Homo sapiens (Human), UniProt P29275); test: A2b radioligand filtration binding assay (tritiated proprietary A2b antagonist, HEK293 membranes); conditions: for IC50: unstarred values: radioligand binding
Chain of human A2b adenosine receptor (P29275 whole entry): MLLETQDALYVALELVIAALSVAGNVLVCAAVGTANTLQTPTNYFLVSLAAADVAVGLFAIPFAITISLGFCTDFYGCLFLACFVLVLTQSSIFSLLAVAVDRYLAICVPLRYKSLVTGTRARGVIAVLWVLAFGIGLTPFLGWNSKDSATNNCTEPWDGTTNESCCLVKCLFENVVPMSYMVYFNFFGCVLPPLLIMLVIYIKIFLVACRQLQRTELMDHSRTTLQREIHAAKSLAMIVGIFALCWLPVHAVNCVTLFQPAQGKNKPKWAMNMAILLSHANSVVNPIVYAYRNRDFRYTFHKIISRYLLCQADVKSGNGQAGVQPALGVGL
Procedure, shortened: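 Displacement of a tritiated proprietary A2b antagonist from membranes of HEK293 cells recombinantly expressing human A2b receptor, measured by filtration and scintillation counting. Percent effect was normalized to total and non-specific binding and fitted with a 4-parameter logistic to give IC50.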

Chain of human A2a adenosine receptor (P29274 whole entry): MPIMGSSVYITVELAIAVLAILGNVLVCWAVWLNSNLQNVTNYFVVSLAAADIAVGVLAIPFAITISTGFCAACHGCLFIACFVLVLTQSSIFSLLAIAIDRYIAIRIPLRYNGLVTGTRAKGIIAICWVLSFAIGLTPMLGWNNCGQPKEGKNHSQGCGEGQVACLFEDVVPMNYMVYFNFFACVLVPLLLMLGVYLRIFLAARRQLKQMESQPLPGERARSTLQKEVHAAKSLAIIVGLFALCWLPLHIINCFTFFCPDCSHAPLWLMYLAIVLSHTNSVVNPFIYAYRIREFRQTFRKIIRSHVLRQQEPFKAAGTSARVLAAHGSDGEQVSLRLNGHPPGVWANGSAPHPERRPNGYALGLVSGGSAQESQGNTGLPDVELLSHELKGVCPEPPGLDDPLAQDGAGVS

SMILES | IC50 [1] | IC50 [2] | A2B binding % inh. @ 10000 nM ([2]; @ 10000 nM, unstarred)
COc1ccc2c(c1)nc(N)n1nc([C@@H]3CC[C@H](C)N(c4cnn(CC(C)(C)O)c4)C3)nc21 [Example 204, 1-(4-((2S,5R)-5-(5-amino-8-methoxy-[1,2,4]triazolo[1,5-c]quinazolin-2-yl)-2-methylpiperidin-1-yl)-1H-pyrazol-1-yl)-2-methylpropan-2-ol] | 0.4 nM | 1.1 nM | 
COc1cccc2c1nc(N)n1nc([C@@H]3CCCN(c4nccnc4C)C3)nc21 [Example 101, (R)-7-methox-2-(1-(3-methylpyrazin-2-yl)piperidin-3-yl)-[1,2,4]triazolo[1,5-c]quinazolin-5-amine] | 0.5 nM | 178 nM | 
COc1cccc2c1nc(N)n1nc(C3CCC(C)N(c4cnn(C5CC5)c4)C3)nc21 (single isomer, unassigned) [Example 141C] | 1 nM | 12 nM | 
COc1cccc2c1nc(N)n1nc([C@H]3CC[C@H](C)N(c4cn(CC(C)(C)O)nc4C)C3)nc21 [Example 145B] | 1.2 nM | 57.2 nM | 
COc1ccc2c(c1)nc(N)n1nc([C@@H]3CCCN(c4cnn([C@H](C)C(C)(C)O)c4)C3)nc21 [Example 185A] | 0.8 nM | 98.1 nM | 
COc1cccc2c1nc(N)n1nc(C3CCC[C@@](O)(c4cnn(C)c4)C3)nc21 (mixture of isomers) [Example 134B] | 1 nM | 76.7 nM | 
COc1cccc2c1nc(N)n1nc([C@@H]3CCCN(c4cnn(C5CCC5O)c4)C3)nc21 (single isomer, unassigned) [Example 60B] | 2 nM | 181 nM | 
COc1cccc2c1nc(N)n1nc(C3CCCCN(c4cn(C)nn4)C3)nc21 (centres unmarked) [Example 175] | 0.1 nM | 23.2 nM | 
COc1cccc2c1nc(N)n1nc([C@@H]3CCO[C@H](c4cnn(C)c4)C3)nc21 [Example 139D] | 58.3 nM | 5290 nM | 
COc1ccc2c(c1)nc(N)n1nc([C@@H]3CC[C@H](C)N(c4cnn(C5CCC[C@H]5O)c4)C3)nc21 (some centres unmarked) [Example 210A] | 0.2 nM | 4.8 nM | 
COc1ccc2c(c1)nc(N)n1nc([C@@H]3CCCN(c4cnn([C@H]5C[C@@](C)(O)C5)c4)C3)nc21 [Example 182, (1S,3s)-3-(4-((R)-3-(5-amino-8-methoxy-[1,2,4]-triazolo[1,5-c]quinazolin-2-yl)piperidin-1-yl)-1H-pyrazol-1-yl)-1-methylcyclobutan-1-ol] | 1.3 nM | 188 nM | 
Cn1cc(N2CCCC(c3nc4c5ccc(Cl)cc5nc(N)n4n3)C2)cn1 (single isomer, unassigned) [Example 200, (R or S)-8-chloro-2-(1-(1-methyl-1H-pyrazol-4-yl)piperidin-3-yl)-[1,2,4]triazolo[1,5-c]quinazolin-5-amine] | 11.8 nM | 152 nM | 
COc1ccc2c(c1)nc(N)n1nc([C@H]3C[C@@H](C)CN(c4cnn(CC(C)(C)O)c4)C3)nc21 [Example 195A] | 35.9 nM | 5810 nM | 
Cc1ccc2c(nc(N)n3nc(C4CCCN(c5cnn(C)c5)C4)nc23)c1C (single isomer, unassigned) [Example 167, (R or S)-7,8-dimethyl-2-(1-(1-methyl-1H-pyrazol-4-yl)piperidin-3-yl)-[1,2,4]triazolo[1,5-c]quinazolin-5-amine] | 14.1 nM | 117 nM | 
COc1cccc2c1nc(N)n1nc([C@@H]3CCN(c4cnn(CC5CC5)c4)C3)nc21 [Example 162, (R)-2-(1-(1-(cyclopropylmethyl)-1H-pyrazol-4-yl)pyrrolidin-3-yl)-7-methoxy[1,2,4]triazolo[1,5-c]quinazolin-5-amine] | 7.8 nM | 17.6 nM | 
COc1cccc2c1nc(N)n1nc([C@@H]3CCC[C@H](c4cnn(C)c4)C3)nc21 [Example 136D] | 29 nM | 1980 nM | 
COc1cccc2c1nc(N)n1nc([C@@H]3CCCN(c4cn[nH]c4)C3)nc21 [Example 55] | 1.5 nM | 4.7 nM | 
COc1cccc2c1nc(N)n1nc(C3CCC[C@](O)(c4cnn(C)c4)C3)nc21 (single isomer, unassigned) [Example 134A] | 61.8 nM | 7750 nM | 
COc1cccc2c1nc(N)n1nc([C@@H]3CCCN(c4ccc(C(C)C)nn4)C3)nc21 [Example 107, (R)-2-(1-(6-isopropylpyridazin-3-yl)piperidin-3-yl)-7-methoxy-[1,2,4]triazolo[1,5-c]quinazolin-5-amine] | 2.1 nM | 275 nM | 
COc1cccc2c1nc(N)n1nc(C3CC(F)CN(c4cnn(CC5(O)CCC5)c4)C3)nc21 (centres unmarked) [Example 150, 1-((4-(3-(5-amino-7-methoxy-[1,2,4]triazolo[1,5-c]quinazolin-2-yl)-5-fluoropiperidin-1-yl)-1H-pyrazol-1-yl)methyl)cyclobutan-1-ol] | 80.5 nM |  | 74% inh. @ 10000 nM
COc1cccc2c1nc(N)n1nc(C3CN(c4cnn(CC5(O)CCC5)c4)CC(F)(F)C3)nc21 (single isomer, unassigned) [Example 157B, (R or S)-1-((4-(5-(5-amino-7-methoxy-[1,2,4]triazolo[1,5-c]quinazolin-2-yl)-3,3-difluoropiperidin-1-yl)-1H-pyrazol-1-yl)methyl)cyclobutan-1-ol] | 0.7 nM | 512 nM | 
COc1ccc2c(c1)nc(N)n1nc([C@@H]3CCCN(c4cnn(CC5(CF)COC5)c4)C3)nc21 [Example 183, (R)-2-(1-(1-((3-(fluoromethyl)oxetan-3-yl)methyl)-1H-pyrazol-4-yl)piperidin-3-yl)-8-methoxy-[1,2,4]triazolo[1,5-c]quinazolin-5-amine] | 157 nM | 4070 nM | 
COc1ccc2c(c1)nc(N)n1nc([C@H]3CC[C@@H](C)N(c4cnn([C@H](C)C(C)(C)O)c4)C3)nc21 [Example 212B, (R)--3-(4-((2R,5S)-5-(5-amino-8-methoxy-[1,2,4]triazolo[1,5-c]quinazolin-2-yl)-2-methylpiperidin-1-yl)-1H-pyrazol-1-yl)-2-methylbutan-2-ol] | 234 nM | 8280 nM | 
COc1cccc2c1nc(N)n1nc([C@@H]3CCCN(c4cnn(C5CCCC5(C)O)c4)C3)nc21 (single isomer, unassigned) [Example 59B] | 0.3 nM | 1.7 nM | 
COc1cccc2c1nc(N)n1nc([C@@H]3CCCN(c4cnn(C)n4)C3)nc21 [Example 75, (R)-7-methoxy-2-(1-(2-methyl-2H-1,2,3-triazol-4-yl)piperidin-3-yl)-[1,2,4]triazolo[1,5-c]quinazolin-5-amine] | 1 nM | 11.6 nM | 
COc1ccc2c(c1)nc(N)n1nc([C@@H]3CCCN(c4cnn(CC5(O)CCC5)c4)C3)nc21 [Example 176] | 0.7 nM | 189 nM | 
Cc1ccc2c(c1)nc(N)n1nc(C3CCCN(c4cnn(C)c4)C3)nc21 (single isomer, unassigned) [Example 199, (R or S)-8-methyl-2-(1-(1-methyl-1H-pyrazol-4-yl)piperidin-3-yl)-[1,2,4]triazolo[1,5-c]quinazolin-5-amine] | 22.5 nM | 257 nM | 
COc1cccc2c1nc(N)n1nc([C@@H]3CCCN(c4cn(C)nc4C(F)(F)F)C3)nc21 [Example 51, (R)-7-methoxy-2-(1-(1-methyl-3-(trifluoromethyl)-1H-pyrazol-4-yl)piperidin-3-yl)-[1,2,4]triazolo[1,5-c]quinazolin-5-amine] | 0.1 nM | 85.9 nM | 

From patent publication US12263171B2, “7-, 8-, and 10-substituted amino triazolo quinazoline derivatives as adenosine receptor antagonists, pharmaceutical compositions and their use” (Merck Sharp & Dohme LLC, priority 2018, dated 2025)
